Results taken from patent publication US12371454B2, “Cyclic peptide compound having Kras inhibitory action” (priority 2019, dated 2025).
pIC50: −log10 of the molar value. Starred links: 1 amine or outer side, 2 acyl side, 3 side chain; linkers in the order of their positions; H or OH if unused. Positions of bridges follow the written chain, without caps; N, C: chain ends. Non-standard residues stand in square brackets, D forms with d. Residues, ends and D or L forms follow the SMILES beside them. *: point of attachment. hPhe(3,5-F2-4-CF3) = N[C@@H](CCc1cc(F)c(C(F)(F)F)c(F)c1)C(=O)O; hPhe(3-Cl-4-CF3) = N[C@@H](CCc1ccc(C(F)(F)F)c(Cl)c1)C(=O)O; hPhe(3-F,4-CF3) = N[C@@H](CCc1ccc(C(F)(F)F)c(F)c1)C(=O)O; Piperazinyl(4-(3-oxetanyl)) = C1OCC1N1CCN(*)CC1; NMePhe(4-Me) = CN[C@@H](Cc1ccc(C)cc1)C(=O)O; NMeGly(cPent) = CN[C@H](C(=O)O)C1CCCC1; NMeGly(cBu) = CN[C@H](C(=O)O)C1CCC1; NMeCha = CN[C@@H](CC1CCCCC1)C(=O)O; X2 = C=CC[C@](C)(N[*:1])C(=O)[*:2]; NEtLeu = CCN[C@@H](CC(C)C)C(=O)O; NMeCba = CN[C@@H](CC1CCC1)C(=O)O; NMeChg = CN[C@H](C(=O)O)C1CCCCC1; NMeI = CC[C@H](C)[C@H](NC)C(=O)O; NMeT = CN[C@H](C(=O)O)[C@@H](C)O; Piperidide(4-Me) = CC1CCN(*)CC1; NMeD = CN[C@@H](CC(=O)O)C(=O)O; NMeL = CN[C@@H](CC(C)C)C(=O)O; Oxazolidin(3-yl) = C1CN(*)CO1; NMeNva = CCC[C@H](NC)C(=O)O; NMeV = CN[C@H](C(=O)O)C(C)C; d(β3hA) = C[C@@H](N)CC(=O)O; dIva = CC[C@@](C)(N)C(=O)O; NMeS = CN[C@@H](CO)C(=O)O; Morpholide = C1CN(*)CCO1; NMeA = CN[C@@H](C)C(=O)O; Piperidide = C1CCN(*)CC1; Pyrrolidide = C1CCN(*)C1; Ac5c = NC1(C(=O)O)CCCC1; Aze = O=C(O)[C@@H]1CCN1; Isopentyl = CC(C)CC*; X14 = CC1(C)CCN(*)C1; Sar = CNCC(=O)O

Key:
[1] = tested on: Human pancreatic cancer cell line AsPC-1; experiment: Measurement of AsPC-1 cell growth inhibition (AsPC-1 CGI); assay type: cell-based; details: 96 h
Outline: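 AsPC-1 cells in 15% FBS RPMI-1640 were exposed to test compound for 96 hours at 37° C, with CellTiter-Glo as endpoint.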

[2] = target: T1, Kras and SOS1 (biotin-tagged human Kras loaded with GDP, His-tagged human SOS1) (Homo sapiens, UniProt P01116, G12D); experiment: Protein-protein interaction inhibition between Kras and SOS1 (KrasGl2D-SOS PPI) using AlphaScreen; assay type: binding; details: AlphaScreen; biotin-tagged human Kras loaded with GDP, His-tagged human SOS1; read-out: KRAS G12D-SOS PPI IC50
T1 construct: made in house; host or cells: E. coli (stated for Kras only)
Outline: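 Donor beads (nickel) hold His-SOS1; acceptor beads (streptavidin) hold biotin-Kras bound to GDP. Signal measured at 520-620 nm following 680 nm excitation.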

T1 sequence (P01116 1-188 isoform P01116-2 G12D): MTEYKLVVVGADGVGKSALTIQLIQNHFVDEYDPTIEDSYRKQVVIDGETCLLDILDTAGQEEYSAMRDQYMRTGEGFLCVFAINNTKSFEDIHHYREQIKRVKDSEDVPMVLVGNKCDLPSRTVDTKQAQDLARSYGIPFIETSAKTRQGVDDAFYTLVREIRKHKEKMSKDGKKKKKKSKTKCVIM

SMILES	pIC50 [1]	pIC50 [2]
CC[C@H](C)[C@@H]1NC(=O)[C@H](CC(C)C)N(C)C(=O)C[C@@H](C(=O)N2CCCCC2)N(C)C(=O)[C@H](C2CCCCC2)N(C)C(=O)C2(CCCC2)NC(=O)[C@@H]2CCCN2C(=O)[C@H](CCc2ccc(C(F)(F)F)c(Cl)c2)NC(=O)CN(C)C(=O)[C@H]([C@@H](C)OC)N(C)C(=O)CN(C)C(=O)CN(C)C1=O [Compound 1072] ([NMeL]I[Sar][Sar][NMeT](Me)[Sar][hPhe(3-Cl-4-CF3)]P[Ac5c][NMeChg][NMeD]-Piperidide; lactam N-11)	6.30 to 7.00	8.92
CC[C@H](C)[C@@H]1NC(=O)[C@H](CC(C)C)N(C)C(=O)C[C@@H](C(=O)N2CCCCC2)N(C)C(=O)[C@H](C2CCCC2)N(C)C(=O)C2(CCCC2)NC(=O)[C@@H]2CCCN2C(=O)[C@H](CCc2ccc(C(F)(F)F)c(Cl)c2)NC(=O)CN(C)C(=O)[C@H](CC2CCCCC2)N(C)C(=O)CN(C)C(=O)CN(C)C1=O [Compound 1073] ([NMeL]I[Sar][Sar][NMeCha][Sar][hPhe(3-Cl-4-CF3)]P[Ac5c][NMeGly(cPent)][NMeD]-Piperidide; lactam N-11)	7.30 to 7.70	8.68
CC[C@H](C)[C@@H]1NC(=O)[C@H](CC(C)C)N(C)C(=O)C[C@@H](C(=O)N2CCOCC2)N(C)C(=O)[C@H]([C@@H](C)CC)N(C)C(=O)C2(CCCC2)NC(=O)[C@@H]2CCCN2C(=O)[C@H](CCc2ccc(C(F)(F)F)c(F)c2)NC(=O)CN(C)C(=O)[C@H](C2CCCC2)N(C)C(=O)[C@@H]2CCN2C(=O)[C@H](C)N(C)C1=O [Compound 1098] ([NMeL]I[NMeA][Aze][NMeGly(cPent)][Sar][hPhe(3-F,4-CF3)]P[Ac5c][NMeI][NMeD]-Morpholide; lactam N-11)	7.30 to 7.70	8.25
C=CC[C@]1(C)NC(=O)[C@@H]2CCCN2C(=O)[C@H](CCc2ccc(C(F)(F)F)c(Cl)c2)NC(=O)CN(C)C(=O)[C@H](CC2CCCCC2)N(C)C(=O)CN(C)C(=O)CN(C)C(=O)[C@H]([C@@H](C)CC)NC(=O)[C@H](CC(C)C)N(C)C(=O)C[C@@H](C(=O)N2CCCCC2)N(C)C(=O)[C@H](C(C)C)N(C)C1=O [Compound 1109] ([NMeL]I[Sar][Sar][NMeCha][Sar][hPhe(3-Cl-4-CF3)]P[X2][NMeV][NMeD]-Piperidide; lactam N-11)	6.30 to 7.00	7.64
CC[C@H](C)[C@@H]1NC(=O)[C@H](CC2CCC2)N(C)C(=O)C[C@@H](C(=O)N2CCCCC2)N(C)C(=O)[C@H](C(C)C)N(C)C(=O)C2(CCCC2)NC(=O)[C@@H]2CCCN2C(=O)[C@H](CCc2ccc(C(F)(F)F)c(Cl)c2)NC(=O)CN(C)C(=O)[C@H](CC2CCCCC2)N(C)C(=O)[C@@H]2CCN2C(=O)[C@H](C)N(C)C1=O [Compound 1114] ([NMeCba]I[NMeA][Aze][NMeCha][Sar][hPhe(3-Cl-4-CF3)]P[Ac5c][NMeV][NMeD]-Piperidide; lactam N-11)	6.30 to 7.00	7.96
CC[C@H](C)[C@@H]1NC(=O)[C@H](COCCC(C)C)N(C)C(=O)C[C@@H](C(=O)N2CCCCC2)N(C)C(=O)[C@H](C2CCCCC2)N(C)C(=O)C2(CCCC2)NC(=O)[C@@H]2CCCN2C(=O)[C@H](CCc2ccc(C(F)(F)F)c(Cl)c2)NC(=O)CN(C)C(=O)[C@H](CC2CCCCC2)N(C)C(=O)CN(C)C(=O)CN(C)C1=O [Compound 1115] ([NMeS](Isopentyl)I[Sar][Sar][NMeCha][Sar][hPhe(3-Cl-4-CF3)]P[Ac5c][NMeChg][NMeD]-Piperidide; lactam N-11)	6.30 to 7.00	8.60
CC[C@H](C)[C@@H]1NC(=O)[C@H](CC(C)C)N(C)C(=O)C[C@@H](C(=O)N2CCCCC2)N(C)C(=O)[C@H](C(C)C)N(C)C(=O)C2(CCCC2)NC(=O)[C@@H]2CCCN2C(=O)[C@H](CCc2ccc(C(F)(F)F)c(Cl)c2)NC(=O)CN(C)C(=O)[C@H](CC2CCC2)N(C)C(=O)CN(C)C(=O)CN(C)C1=O [Compound 1124] ([NMeL]I[Sar][Sar][NMeCba][Sar][hPhe(3-Cl-4-CF3)]P[Ac5c][NMeV][NMeD]-Piperidide; lactam N-11)	6.30 to 7.00	8.15
CC[C@H](C)[C@@H]1NC(=O)[C@H](CC(C)C)N(C)C(=O)C[C@@H](C(=O)N2CCCCC2)N(C)C(=O)[C@H](C2CCC2)N(C)C(=O)C2(CCCC2)NC(=O)[C@@H]2CCCN2C(=O)[C@H](CCc2ccc(C(F)(F)F)c(Cl)c2)NC(=O)CN(C)C(=O)[C@H](CC2CCCCC2)N(C)C(=O)CN(C)C(=O)CN(C)C1=O [Compound 1128] ([NMeL]I[Sar][Sar][NMeCha][Sar][hPhe(3-Cl-4-CF3)]P[Ac5c][NMeGly(cBu)][NMeD]-Piperidide; lactam N-11)	6.30 to 7.00	8.68
CC[C@H](C)[C@@H]1NC(=O)[C@H](CC(C)C)N(C)C(=O)C[C@@H](C(=O)N2CCCCC2)N(C)C(=O)[C@H](C(C)C)N(C)C(=O)[C@@](C)(CC)NC(=O)[C@@H]2CCCN2C(=O)[C@H](CCc2ccc(C(F)(F)F)c(Cl)c2)NC(=O)CN(C)C(=O)[C@H](CC2CCCCC2)N(C)C(=O)CN(C)C(=O)CN(C)C1=O [Compound 1130] ([NMeL]I[Sar][Sar][NMeCha][Sar][hPhe(3-Cl-4-CF3)]P[dIva][NMeV][NMeD]-Piperidide; lactam N-11)	6.30 to 7.00	8.36
CC[C@H](C)[C@@H]1NC(=O)[C@H](CC(C)C)N(C)C(=O)C[C@@H](C(=O)N2CCC(C)(C)C2)N(C)C(=O)[C@H](C2CCCCC2)N(C)C(=O)C2(CCCC2)NC(=O)[C@@H]2CCCN2C(=O)[C@H](CCc2ccc(C(F)(F)F)c(Cl)c2)NC(=O)CN(C)C(=O)[C@H](CC2CCCCC2)N(C)C(=O)CN(C)C(=O)CN(C)C1=O [Compound 1150] ([NMeL]I[Sar][Sar][NMeCha][Sar][hPhe(3-Cl-4-CF3)]P[Ac5c][NMeChg][NMeD]-X14; lactam N-11)	7.00 to 7.30	9.28
CC[C@H](C)[C@@H]1NC(=O)[C@H](CC(C)C)N(C)C(=O)C[C@@H](C)NC(=O)[C@H](C2CCCC2)N(C)C(=O)C2(CCCC2)NC(=O)[C@H](C)N(C)C(=O)[C@H](CCc2ccc(C(F)(F)F)c(Cl)c2)NC(=O)CN(C)C(=O)[C@H](Cc2ccc(C)cc2)N(C)C(=O)[C@@H]2CCN2C(=O)[C@H](C)N(C)C1=O [Compound 1153] (cyclo([Ac5c][NMeGly(cPent)][d(β3hA)][NMeL]I[NMeA][Aze][NMePhe(4-Me)][Sar][hPhe(3-Cl-4-CF3)][NMeA]))	6.30 to 7.00	8.60
CC[C@H](C)[C@@H]1NC(=O)[C@H](CC(C)C)N(C)C(=O)C[C@@H](C(=O)N2CCC(C)CC2)NC(=O)[C@H]([C@@H](C)CC)N(C)C(=O)C2(CCCC2)NC(=O)[C@@H]2CCCN2C(=O)[C@H](CCc2ccc(C(F)(F)F)c(Cl)c2)NC(=O)CN(C)C(=O)[C@H](CC2CCCCC2)N(C)C(=O)CN(C)C(=O)CN(C)C1=O [Compound 1172] ([NMeL]I[Sar][Sar][NMeCha][Sar][hPhe(3-Cl-4-CF3)]P[Ac5c][NMeI]D-{Piperidide(4-Me)}; lactam N-11)	6.30 to 7.00	8.17
CC[C@H](C)[C@@H]1NC(=O)[C@H](CC(C)C)N(C)C(=O)C[C@@H](C(=O)N2CCOCC2)N(C)C(=O)[C@H](C(C)C)N(C)C(=O)C2(CCCC2)NC(=O)[C@@H]2CCCN2C(=O)[C@H](CCc2ccc(C(F)(F)F)c(Cl)c2)NC(=O)CN(C)C(=O)[C@H](CC2CCCCC2)N(C)C(=O)[C@@H]2CCN2C(=O)[C@H](C)N(C)C1=O [Compound 1178] ([NMeL]I[NMeA][Aze][NMeCha][Sar][hPhe(3-Cl-4-CF3)]P[Ac5c][NMeV][NMeD]-Morpholide; lactam N-11)	7.00 to 7.30	9.00
CC[C@H](C)[C@@H]1NC(=O)[C@H](CC(C)C)N(C)C(=O)C[C@@H](C(=O)N2CCOC2)N(C)C(=O)[C@H](C2CCCCC2)N(C)C(=O)C2(CCCC2)NC(=O)[C@@H]2CCCN2C(=O)[C@H](CCc2ccc(C(F)(F)F)c(Cl)c2)NC(=O)CN(C)C(=O)[C@H](CC2CCCCC2)N(C)C(=O)CN(C)C(=O)CN(C)C1=O [Compound 1180] ([NMeL]I[Sar][Sar][NMeCha][Sar][hPhe(3-Cl-4-CF3)]P[Ac5c][NMeChg][NMeD]-{Oxazolidin(3-yl)}; lactam N-11)	7.00 to 7.30	9.30
CC[C@H](C)[C@@H]1NC(=O)[C@H](CC(C)C)N(C)C(=O)C[C@@H](C(=O)N2CCN(C3COC3)CC2)N(C)C(=O)[C@H](C(C)C)N(C)C(=O)C2(CCCC2)NC(=O)[C@@H]2CCCN2C(=O)[C@H](CCc2ccc(C(F)(F)F)c(Cl)c2)NC(=O)CN(C)C(=O)[C@H](CC2CCCCC2)N(C)C(=O)[C@@H]2CCN2C(=O)[C@H](C)N(C)C1=O [Compound 1181] ([NMeL]I[NMeA][Aze][NMeCha][Sar][hPhe(3-Cl-4-CF3)]P[Ac5c][NMeV][NMeD]-{Piperazinyl(4-(3-oxetanyl))}; lactam N-11)	6.30 to 7.00	8.22
CC[C@H](C)[C@@H]1NC(=O)[C@H](CC(C)C)N(CC)C(=O)C[C@@H](C(=O)N2CCOCC2)N(C)C(=O)[C@H](C2CCCCC2)N(C)C(=O)C2(CCCC2)NC(=O)[C@@H]2CCCN2C(=O)[C@H](CCc2ccc(C(F)(F)F)c(Cl)c2)NC(=O)CN(C)C(=O)[C@H](CC2CCCCC2)N(C)C(=O)CN(C)C(=O)CN(C)C1=O [Compound 1189] ([NEtLeu]I[Sar][Sar][NMeCha][Sar][hPhe(3-Cl-4-CF3)]P[Ac5c][NMeChg][NMeD]-Morpholide; lactam N-11)	7.00 to 7.30	9.13
CCC[C@H]1C(=O)N[C@@H]([C@@H](C)CC)C(=O)N(C)CC(=O)N(C)CC(=O)N(C)[C@@H](Cc2ccc(C)cc2)C(=O)N(C)CC(=O)N[C@@H](CCc2cc(F)c(C(F)(F)F)c(F)c2)C(=O)N2CCC[C@H]2C(=O)NC2(CCCC2)C(=O)N(C)[C@@H](C2CCCCC2)C(=O)N(C)[C@H](C(=O)N2CCCC2)CC(=O)N1C [Compound 1197] ([NMeNva]I[Sar][Sar][NMePhe(4-Me)][Sar][hPhe(3,5-F2-4-CF3)]P[Ac5c][NMeChg][NMeD]-Pyrrolidide; lactam N-11)	7.30 to 7.70	9.22
